Target: PrP (Mesocricetus auratus, UniProt P04273)
Type: binding, hamster

Chain of PrP (P04273 23-231 limits assumed): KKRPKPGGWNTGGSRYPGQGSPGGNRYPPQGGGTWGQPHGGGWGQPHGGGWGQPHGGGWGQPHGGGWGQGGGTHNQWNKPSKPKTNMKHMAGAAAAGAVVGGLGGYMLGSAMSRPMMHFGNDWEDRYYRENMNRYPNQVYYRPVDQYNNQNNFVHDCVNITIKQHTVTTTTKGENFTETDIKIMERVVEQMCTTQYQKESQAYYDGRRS

Nc1c(/N=N/c2ccc(-c3ccc(/N=N/c4cc(S(=O)(=O)O)c5ccccc5c4N)cc3)cc2)cc(S(=O)(=O)O)c2ccccc12 [Congo red]
inhibition of binding of PrP to RADA (Congo red pre-incubated with PrP before RADA exposure): dose-dependent inhibition | Congo red concentration with significant inhibition of PrP binding (Congo red pre-incubation with PrP, Mann-Whitney): 1 µM | inhibition of binding of PrP (RADA pre-incubated with Congo red before or after plate binding): ineffective

Source: patent publication US10570172B1 (priority 2008, dated 2020)
